Measurements published in patent publication US12679878B2, “CRF2 receptor agonists and their use in therapy” (SANOFI, priority 2020, dated 2026).
Like-named read-outs stand apart in the source and are kept apart here. Starred links: 1 amine or outer side, 2 acyl side, 3 side chain; linkers in the order of their positions; H or OH if unused. Non-standard residues stand in square brackets, D forms with d. Residues, ends and D or L forms follow the SMILES beside them. Groups on a side chain read outwards from the residue. *: point of attachment. C18 diacid = O=C(O)CCCCCCCCCCCCCCCCC(=O)*; γGlu = O=C(O)[C@H](CCC(=O)[*:2])N[*:1]; AEEA = NCCOCCOCC(=O)O; Aib = CC(C)(N)C(=O)O

Target: T1, human CRF2α receptor (Homo sapiens, UniProt Q13324)
T1 construct: expressed in transfected cells; host or cells: TeloHEAC
T1 sequence (Q13324 1-411): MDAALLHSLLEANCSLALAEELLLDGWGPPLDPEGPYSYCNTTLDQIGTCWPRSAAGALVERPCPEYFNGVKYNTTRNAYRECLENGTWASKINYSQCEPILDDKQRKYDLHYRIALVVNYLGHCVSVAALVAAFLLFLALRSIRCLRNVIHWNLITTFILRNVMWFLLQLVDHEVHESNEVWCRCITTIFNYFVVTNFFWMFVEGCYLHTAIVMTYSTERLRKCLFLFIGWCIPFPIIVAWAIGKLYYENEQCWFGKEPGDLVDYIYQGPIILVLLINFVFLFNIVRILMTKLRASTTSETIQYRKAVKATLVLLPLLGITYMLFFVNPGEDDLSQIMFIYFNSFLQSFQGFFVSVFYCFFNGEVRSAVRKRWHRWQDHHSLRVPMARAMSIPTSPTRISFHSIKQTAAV
Experiment: cAMP agonism at human CRF2 α receptor in TeloHEAC cells (Example 7)
Assay type: cell-based
Conditions: cAMP HTRF, TeloHEAC cells stably expressing human CRF2 α
In short: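 HTRF ratio 665/620 nm, read 1 h after lysis reagents, reports cAMP. Cells: thawed stocks, 2000/well, 30 min RT with compound in HBSS, 20 mM HEPES, 0 or 0.1% HSA, 2 mM IBMX. Activity normalised to UCN2 1000 nM = 100%; EC50 from half-maximal activation.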

[1] = 0% HSA, read-out: EC50 [nM], 0% HSA

CC[C@H](C)[C@H](N)C(=O)N[C@H](C(=O)N[C@@H](CC(C)C)C(=O)N[C@@H](CO)C(=O)N[C@@H](CC(C)C)C(=O)N[C@@H](CC(=O)O)C(=O)N[C@H](C(=O)N1CCC[C@H]1C(=O)N[C@H](C(=O)N[C@@H](CCCCN)C(=O)N[C@@H](CC(C)C)C(=O)N[C@@H](CCCCNC(=O)COCCOCCNC(=O)COCCOCCNC(=O)CC[C@H](NC(=O)CCCCCCCCCCCCCCCCC(=O)O)C(=O)O)C(=O)N[C@@H](CCC(N)=O)C(=O)N[C@@H](CCCCN)C(=O)N[C@@H](CC(C)C)C(=O)N[C@@H](CC(C)C)C(=O)N[C@@H](CCCCN)C(=O)N[C@@H](CCC(N)=O)C(=O)N[C@@H](CCC(=O)O)C(=O)N[C@@H](CCCNC(=N)N)C(=O)N[C@@H](CCC(N)=O)C(=O)N[C@@H](CCCCN)C(=O)N[C@@H](CCCCN)C(=O)N[C@@H](CCC(N)=O)C(=O)N[C@@H](CCCNC(=N)N)C(=O)N[C@@H](CCC(=O)O)C(=O)N[C@@H](CCCCN)C(=O)N[C@@H](C)C(=O)N[C@@H](CCCCN)C(=O)N[C@H](C(=O)N[C@@H](CC(N)=O)C(=O)N[C@H](C(=O)N[C@@H](CCC(N)=O)C(=O)N[C@H](C(=O)N[C@@H](CC(C)C)C(=O)N[C@@H](C)C(=O)N[C@@H](CCC(N)=O)C(=O)N[C@H](C(N)=O)C(C)C)[C@@H](C)CC)C(C)C)[C@@H](C)O)[C@@H](C)CC)C(C)C)C(C)C [compound 93] (H-IVLSLDVPIKLK([AEEA-AEEA-γGlu-C18 diacid])QKLLKQERQKKQREKAKTNVQILAQV-NH2; N-terminus assumed)
EC50 [1]: 50.9 nM

CC[C@H](C)[C@H](N)C(=O)N[C@H](C(=O)N[C@@H](CC(C)C)C(=O)N[C@@H](CO)C(=O)N[C@@H](CC(C)C)C(=O)N[C@@H](CC(=O)O)C(=O)N[C@H](C(=O)N1CCC[C@H]1C(=O)N[C@H](C(=O)N[C@@H](CCCCN)C(=O)N[C@@H](CC(C)C)C(=O)N[C@@H](CCCCNC(=O)COCCOCCNC(=O)COCCOCCNC(=O)CC[C@H](NC(=O)CCCCCCCCCCCCCCCCC(=O)O)C(=O)O)C(=O)N[C@@H](CCCCN)C(=O)N[C@H](C(=O)N[C@@H](CC(C)C)C(=O)N[C@@H](CC(C)C)C(=O)N[C@@H](CCCCN)C(=O)N[C@@H](CCC(N)=O)C(=O)N[C@@H](CCC(=O)O)C(=O)N[C@@H](CCCNC(=N)N)C(=O)N[C@@H](CCC(N)=O)C(=O)N[C@@H](CCCCN)C(=O)N[C@@H](CCCCN)C(=O)N[C@@H](CCC(=O)O)C(=O)N[C@@H](CCCNC(=N)N)C(=O)N[C@@H](CCC(=O)O)C(=O)N[C@@H](CCC(N)=O)C(=O)N[C@@H](C)C(=O)N[C@@H](CCC(=O)O)C(=O)N[C@H](C(=O)N[C@@H](CC(N)=O)C(=O)N[C@@H](CCCCN)C(=O)N[C@@H](CCC(N)=O)C(=O)N[C@H](C(=O)N[C@@H](CC(C)C)C(=O)N[C@@H](C)C(=O)N[C@@H](CCC(N)=O)C(=O)N[C@H](C(N)=O)C(C)C)[C@@H](C)CC)[C@@H](C)O)[C@@H](C)CC)[C@@H](C)CC)C(C)C)C(C)C [compound 94] (H-IVLSLDVPIKLK([AEEA-AEEA-γGlu-C18 diacid])KILLKQERQKKEREQAETNKQILAQV-NH2)
EC50 [1]: 1.73 nM | EC50 (0.1% HSA, read-out: EC50 [nM], 0.1% HSA): 49.1 nM

CC[C@H](C)[C@H](N)C(=O)N[C@H](C(=O)N[C@@H](CC(C)C)C(=O)N[C@@H](CO)C(=O)N[C@@H](CC(C)C)C(=O)N[C@@H](CC(=O)O)C(=O)N[C@H](C(=O)N1CCC[C@H]1C(=O)N[C@H](C(=O)N[C@@H](CCCCN)C(=O)N[C@@H](CC(C)C)C(=O)N[C@@H](CCCCNC(=O)COCCOCCNC(=O)COCCOCCNC(=O)CC[C@H](NC(=O)CCCCCCCCCCCCCCCCC(=O)O)C(=O)O)C(=O)N[C@@H](CCC(N)=O)C(=O)N[C@@H](CCCCN)C(=O)N[C@@H](CC(C)C)C(=O)N[C@@H](CC(C)C)C(=O)N[C@@H](CCCCN)C(=O)N[C@@H](CCC(N)=O)C(=O)N[C@@H](CCC(=O)O)C(=O)N[C@@H](CCCNC(=N)N)C(=O)N[C@@H](CCC(N)=O)C(=O)N[C@@H](CCCCN)C(=O)N[C@@H](CCCCN)C(=O)N[C@@H](CCC(=O)O)C(=O)N[C@@H](CCCNC(=N)N)C(=O)N[C@@H](CCC(=O)O)C(=O)N[C@@H](CCC(N)=O)C(=O)N[C@@H](C)C(=O)N[C@@H](CCC(=O)O)C(=O)N[C@H](C(=O)N[C@@H](CC(N)=O)C(=O)N[C@@H](CCCCN)C(=O)N[C@@H](CCC(N)=O)C(=O)N[C@H](C(=O)N[C@@H](CC(C)C)C(=O)N[C@@H](C)C(=O)N[C@@H](CCC(N)=O)C(=O)N[C@H](C(N)=O)C(C)C)[C@@H](C)CC)[C@@H](C)O)[C@@H](C)CC)C(C)C)C(C)C [compound 95] (H-IVLSLDVPIKLK([AEEA-AEEA-γGlu-C18 diacid])QKLLKQERQKKEREQAETNKQILAQV-NH2; N-terminus assumed)
EC50 [1]: 25 nM

CC[C@H](C)[C@H](N)C(=O)N[C@H](C(=O)N[C@@H](CC(C)C)C(=O)N[C@@H](CO)C(=O)N[C@@H](CC(C)C)C(=O)N[C@@H](CC(=O)O)C(=O)N[C@H](C(=O)N1CCC[C@H]1C(=O)N[C@H](C(=O)N[C@@H](CCCCN)C(=O)N[C@@H](CC(C)C)C(=O)N[C@@H](CCCCNC(=O)COCCOCCNC(=O)COCCOCCNC(=O)CC[C@H](NC(=O)CCCCCCCCCCCCCCCCC(=O)O)C(=O)O)C(=O)N[C@@H](CCC(N)=O)C(=O)N[C@@H](CCCCN)C(=O)N[C@@H](CC(C)C)C(=O)N[C@@H](CC(C)C)C(=O)N[C@@H](CCCCN)C(=O)N[C@@H](CCC(N)=O)C(=O)N[C@@H](CCC(=O)O)C(=O)N[C@@H](CCCNC(=N)N)C(=O)N[C@@H](CCC(N)=O)C(=O)N[C@@H](CCCCN)C(=O)N[C@@H](CCCCN)C(=O)N[C@@H](CCC(N)=O)C(=O)N[C@@H](CCCNC(=N)N)C(=O)N[C@@H](CCC(=O)O)C(=O)N[C@@H](CCC(N)=O)C(=O)N[C@@H](C)C(=O)N[C@@H](CCC(=O)O)C(=O)N[C@H](C(=O)N[C@@H](CC(N)=O)C(=O)N[C@@H](CCCCN)C(=O)N[C@@H](CCC(N)=O)C(=O)N[C@H](C(=O)N[C@@H](CC(C)C)C(=O)N[C@@H](C)C(=O)N[C@@H](CCC(N)=O)C(=O)N[C@H](C(N)=O)C(C)C)[C@@H](C)CC)[C@@H](C)O)[C@@H](C)CC)C(C)C)C(C)C [compound 97] (H-IVLSLDVPIKLK([AEEA-AEEA-γGlu-C18 diacid])QKLLKQERQKKQREQAETNKQILAQV-NH2)
EC50 [1]: 1.66 nM

CC[C@H](C)[C@H](N)C(=O)N[C@H](C(=O)N[C@@H](CC(C)C)C(=O)N[C@@H](CO)C(=O)N[C@@H](CC(C)C)C(=O)N[C@@H](CC(=O)O)C(=O)N[C@H](C(=O)N1CCC[C@H]1C(=O)N[C@H](C(=O)N[C@@H](CCCCN)C(=O)N[C@@H](CC(C)C)C(=O)N[C@@H](CCCCNC(=O)COCCOCCNC(=O)COCCOCCNC(=O)CC[C@H](NC(=O)CCCCCCCCCCCCCCCCC(=O)O)C(=O)O)C(=O)N[C@@H](CCC(N)=O)C(=O)N[C@@H](CCCCN)C(=O)N[C@@H](CC(C)C)C(=O)N[C@@H](CC(C)C)C(=O)N[C@@H](CCCCN)C(=O)N[C@@H](CCC(N)=O)C(=O)N[C@@H](CCC(=O)O)C(=O)N[C@@H](CCCNC(=N)N)C(=O)N[C@@H](CCC(N)=O)C(=O)N[C@@H](CCCCN)C(=O)N[C@@H](CCCCN)C(=O)NC(C)(C)C(=O)N[C@@H](CCCNC(=N)N)C(=O)N[C@@H](CCC(=O)O)C(=O)N[C@@H](CCC(N)=O)C(=O)N[C@@H](C)C(=O)N[C@@H](CCC(=O)O)C(=O)N[C@H](C(=O)N[C@@H](CC(N)=O)C(=O)N[C@@H](CCCCN)C(=O)N[C@@H](CCC(N)=O)C(=O)N[C@H](C(=O)N[C@@H](CC(C)C)C(=O)N[C@@H](C)C(=O)N[C@@H](CCC(N)=O)C(=O)N[C@H](C(N)=O)C(C)C)[C@@H](C)CC)[C@@H](C)O)[C@@H](C)CC)C(C)C)C(C)C [compound 98] (H-IVLSLDVPIKLK([AEEA-AEEA-γGlu-C18 diacid])QKLLKQERQKK[Aib]REQAETNKQILAQV-NH2; N-terminus assumed)
EC50 [1]: 2.36 nM
